US20110217412A1, “CHOLESTEROL LOWERING SUPPLEMENT AND LOW CHOLESTEROL EGG PRODUCED BY USING THE SAME” (JINIS BIOPHARMACEUTICALS CO., priority 2004, published 2011)
Each block holds one molecule with its values, some of them ahead of it.

Experiments:
hens [1] = conditions: cited from earlier work
[2] = cited from earlier work
ISA brown hens [3] = experiment: Egg cholesterol analysis (yolk weight, gas chromatography of yolk cholesterol) of hens fed supplemented diet; assay type: in vivo; conditions: compared to control
Description: (§1) Healthy ISA brown hens, 45-week old, were assigned randomly to each dietary group (control group, 8 birds; experimental group, 6 birds each). Each bird was placed in an individual cage in an environmentally controlled room (25° C., 50% relative humidity, 16L:8D). The hens were allowed for 2 weeks in which to adapt to the feed with no additives and the housing. Control birds were fed a commercial diet based on corn and soybean meal (Table 1), while birds in experimental groups were fed diets supplemented with 0.003 or 0.03% of compactin (Sigma Aldrich Korea) for 6 weeks. Feed and water were provided ad libitum throughout the experiment. Feed consumption, egg production and egg weight were recorded daily. Egg production was expressed as percent hen day production; (100×number of eggs laid)/(number of hens×days).
For egg cholesterol analysis, eggs from each bird were collected and egg yolk was separated, weighed, and sampled for analysis. Lipids from eggs were extracted by the method of Folch et al. (1957). Briefly, one gram of sample was saponified with 3 mL of 33% KOH and incubated with 30 mL of 95% methanol in a 65° C. water bath for 90 min. After saponification, 10 mL hexane and 3 mL water were added, followed by vigorous shaking for 10 min. 5α-cholestan (Sigma C-8300) was used as an internal standard. Cholesterol content was determined by a gas chromatography (Shimadzu, Japan) using column VB-1 (30 m×0.25 mm×0.25 μm, VICI Inc.) with a split ratio of 100:1 and nitrogen as carrier gas for a column flow rate of 0.54 mL/min. Injector, column, and detector temperatures were 275° C., 290° C., and 340° C., respectively. […] The average control yolk weight was 17.2 g. […] Administration of compactin caused the significant reduction in yolk weight, compared to the control with 12.8 mg cholesterol per gram of yolk. When expressed as total yolk cholesterol content, percentage changes compared to that of control were 16% and 29% at 0.003% and 0.03% compactin, respectively.
Streptomyces cell precipitates and cell culture broth after compactin bioconversion were used as cholesterol lowering supplements respectively. First, compactin bioconversion was done as following. Single colony of streptomyces carbophilus was inoculated into 100 ml R2YE in 500 ml erlenmyer flask and incubated at 27° C. at 200 rpm for 3 days. After incubation, 10 ml of seed culture was added to 100 ml of conversion media (glucose 2.0%, corn steep liquor 0.2%, K2HPO4 0.15%, yeast extract 0.1%, MgSO4.7H2O 0.15%, ZnSO47H2O 0.001%, NH4NO3 0.1%, peptone 0.1%, pH 7.0) in 500 ml flask and incubated at 27° C. at 200 rpm for 3 days. Then, filter sterilized compactin salt was added into culture up to 0.1% weight of culture and incubated for another 4 days. After bioconversion reaction, culture media was analyzed by TLC to confirm the presence of compactin and pravastatin. This culture was freeze dried for 24 hours and then used as cholesterol lowering supplements. Also Streptomyces cells were obtained from bioconversion reaction by centrifugation at 3,000×g. Streptomyces cell precipitates recovered as pellets was dried at 60° C. and used as cholesterol lowering supplements. Streptomyces cell precipitates as well as bioconversion reaction broth was dried and used as cholesterol lowering supplements as shown in Example 1. Egg production and cholesterol amount were measured afterward.
(§2) Egg production and yolk cholesterol analysis was performed with the same procedure as described in Example 1 above except 0.5 and 1% of Streptomyces cell precipitates and bioconversion reaction broth were administered instead of compactin. Hen performance was investigated by measuring egg weight and egg production as in Table 6.

ISA brown hens [4] = experiment: Egg laying performance of hens fed supplemented diet (egg weight, egg production); assay type: in vivo; conditions: for Egg production: 6 weeks
Description: as §1
The effects of 0.003% or 0.03% compactin on the laying performance of 45-week old ISA brown hens were investigated (Table 2). Egg weight was maintained at more than 60 grams after 6 weeks of oral administrations of compactin at both doses. […] Maintenance of laying performance with compactin feeding is of contrast to the previous art in which atorvastatin reduced egg production down to 70% after feeding for 5-week.
Egg production and yolk cholesterol analysis was performed with 0.003 and 0.03% pravastatin administered group with the same procedure as described in Example 1 above. Hen performance was investigated by measuring egg weight and egg production as in Table 4. Pravastatin group had maintained above 80% of egg production rate after 6-week administration, same as control.
as §2

hens [5] = conditions: cited from earlier work; remark: listed apart in the source
[6] = 0.003 weight % pravastatin in feed
[7] = 0.03 weight % pravastatin in feed

Molecule: CC[C@H](C)C(=O)O[C@H]1C[C@@H](C)C=C2C=C[C@H](C)[C@H](CC[C@@H]3C[C@@H](O)CC(=O)O3)[C@H]21 [lovastatin]
- Reduction in cholesterol content in eggs (hens [1]; dose of 0.03%): ~3.9%

- Reduction rates in the production of eggs (ISA brown hens [4]; in vivo): at most 5%
Molecule: CC[C@H](C)C(=O)O[C@H]1CCC=C2C=C[C@H](C)[C@H](CC[C@@H]3C[C@@H](O)CC(=O)O3)[C@H]21 [Compactin, compactin]
- Toxicity in clinical trials [2]: serious toxicity
- Cholesterol content change (ISA brown hens [3]; 0.003 weight % compactin in feed): −16%
- Cholesterol content change (ISA brown hens [3]; 0.003 weight % compactin in feed, listed as compactin): -16%
- Cholesterol content change (ISA brown hens [3]; 0.03 weight % compactin in feed): −29%
- Cholesterol content change (ISA brown hens [3]; 0.03 weight % compactin in feed, listed as compactin): -29%
- Difference in egg production compared to the control group (ISA brown hens [4]; in vivo): did not cause any difference in egg production

Molecule: pravastatin
- Cholesterol content change (ISA brown hens [3]; [6]): −6%
- Cholesterol content change (ISA brown hens [3]; [7]): −24%
- Egg production (ISA brown hens [4]; [6]): 84%
- Egg production (ISA brown hens [4]; [7]): 82%
- Egg production rate maintained (ISA brown hens [4]; after 6-week administration of pravastatin (0.003 and 0.03%)): above 80%

Molecule: CC(C)c1c(C(=O)Nc2ccccc2)c(-c2ccccc2)c(-c2ccc(F)cc2)n1CC[C@@H](O)C[C@@H](O)CC(=O)O [atorvastatin]
- Effect on the cholesterol content in eggs (hens [1]; according to U.S. Pat. No. 6,177,121): distinctly effective
- Reduction of egg production versus control group (hens [5]; 2, 3 and 4 weeks after administration, Table 2 of U.S. Pat. No. 6,177,121): 20%
- Egg production reduced down to (hens [5]; after feeding for 5-week): 70%
